Assay [1] addresses human CB1 receptors (Homo sapiens (Human), UniProt P21554). The experiment in a line: functional cAMP assay, CHO cells expressing human CB1. As to conditions: functional cAMP assay, CHO cells expressing human CB1. The class given is cell-based. In short, it runs like this:
(§1)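 CHO-hCB1/hCB2 cells, KRB + 1 mM IBMX preincubation 30 min 30 °C; cpd 30 min 30 °C; lysis + TR-FRET cAMP detection, 2 h RT; cAMP from std curve; EC50.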

The target of assay [2] is human CB2 receptors (Homo sapiens (Human), UniProt P34972). The experiment in a line: functional cAMP assay, CHO cells expressing human CB2. The class given is cell-based. An outline of the steps: as §1

SMILES strings stand for the structures. Read-outs that look alike come from different tables or passages of the source.

human CB2 receptors, sequence (P34972 whole entry): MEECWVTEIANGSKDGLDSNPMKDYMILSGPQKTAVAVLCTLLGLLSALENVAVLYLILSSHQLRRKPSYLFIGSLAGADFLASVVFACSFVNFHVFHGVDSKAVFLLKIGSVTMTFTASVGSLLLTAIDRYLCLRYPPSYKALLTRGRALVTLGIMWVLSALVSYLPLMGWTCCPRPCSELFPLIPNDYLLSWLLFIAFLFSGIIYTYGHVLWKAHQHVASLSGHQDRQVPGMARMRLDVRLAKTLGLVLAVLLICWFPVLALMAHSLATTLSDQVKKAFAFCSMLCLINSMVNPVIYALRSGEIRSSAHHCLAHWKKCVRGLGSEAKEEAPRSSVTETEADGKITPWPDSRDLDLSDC
human CB1 receptors, sequence (P21554 whole entry): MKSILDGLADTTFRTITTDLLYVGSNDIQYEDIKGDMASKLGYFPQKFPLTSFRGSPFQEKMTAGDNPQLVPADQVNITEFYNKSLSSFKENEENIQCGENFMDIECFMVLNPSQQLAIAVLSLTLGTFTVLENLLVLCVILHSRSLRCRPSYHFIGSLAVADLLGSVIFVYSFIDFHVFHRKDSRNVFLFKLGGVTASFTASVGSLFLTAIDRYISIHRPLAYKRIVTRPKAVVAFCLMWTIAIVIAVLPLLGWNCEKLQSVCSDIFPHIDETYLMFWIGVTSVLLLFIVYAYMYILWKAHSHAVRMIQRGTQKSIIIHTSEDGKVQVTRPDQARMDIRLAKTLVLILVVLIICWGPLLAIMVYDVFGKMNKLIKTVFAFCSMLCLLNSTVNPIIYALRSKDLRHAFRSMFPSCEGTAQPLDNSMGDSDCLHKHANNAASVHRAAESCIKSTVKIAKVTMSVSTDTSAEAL

Turning to `CC(CC1CC1)(NC(=O)c1cc(OCC(F)(F)F)c(C2CC2)cn1)C(N)=O` (stereo not shown) [Example 186, N-(1-amino-3-cyclopropyl-2-methyl-1-oxopropan-2-yl)-5-cyclopropyl-4-(2,2,2-trifluoroethoxy)pyridine-2-carboxamide], the EC50 was more than 10 µM in assay [1] (read-out: Human CB1 EC50) and 0.343 µM in assay [2] (read-out: Human CB2 EC50).
The corresponding values for `CNC(=O)C(C)(CC1CC1)NC(=O)c1cc(OCC(F)(F)F)c(C2CC2)cn1` (stereo not shown) [Example 189, 5-cyclopropyl-N-[3-cyclopropyl-2-methyl-1-(methylamino)-1-oxopropan-2-yl]-4-(2,2,2-trifluoroethoxy)pyridine-2-carboxamide] are more than 10 µM and 0.292 µM.
The corresponding values for `Cc1nnc(C(C)(CC2COC2)NC(=O)c2cc(O[C@@H](C)C(F)(F)F)c(C3CC3)cn2)o1` (stereo partly drawn) [Example 190, 5-cyclopropyl-N-[2-(5-methyl-1,3,4-oxadiazol-2-yl)-1-(oxetan-3-yl)propan-2-yl]-4-[(2S)-1,1,1-trifluoropropan-2-yl]oxypyridine-2-carboxamide] are more than 10 µM and 0.559 µM.
The corresponding values for `Cc1nnc(C(C)(CC2COC2)NC(=O)c2cc(OCC(F)(F)F)c(C3CC3)cn2)o1` (stereo not shown) [Example 191, 5-cyclopropyl-N-[2-(5-methyl-1,3,4-oxadiazol-2-yl)-1-(oxetan-3-yl)propan-2-yl]-4-(2,2,2-trifluoroethoxy)pyridine-2-carboxamide] are more than 10 µM and 0.707 µM.
Regarding `CC(C)(C)C(NC(=O)c1cc(OCC(F)(F)F)c(C2CC2)cn1)c1noc(N)n1` (stereo not shown) [Example 192, N-[1-(5-amino-1,2,4-oxadiazol-3-yl)-2,2-dimethylpropyl]-5-cyclopropyl-4-(2,2,2-trifluoroethoxy)pyridine-2-carboxamide], the EC50 in assay [1] (read-out: Human CB1 EC50) is more than 10 µM; in assay [2] (read-out: Human CB2 EC50), 0.0044 µM.
For `NC(=O)CC(NC(=O)c1cc(OCC(F)(F)F)c(C2CC2)cn1)C1CC1` (stereo not shown) [Example 193, N-(3-amino-1-cyclopropyl-3-oxopropyl)-5-cyclopropyl-4-(2,2,2-trifluoroethoxy)pyridine-2-carboxamide], the EC50 in assay [1] (read-out: Human CB1 EC50) is more than 10 µM; in assay [2] (read-out: Human CB2 EC50) it was 0.114 µM.
For `CC(C)(C)C(NC(=O)c1cc(OCC(F)(F)F)c(C2CC2)cn1)C(N)=O` (stereo not shown) [Example 194, N-(1-amino-3,3-dimethyl-1-oxobutan-2-yl)-5-cyclopropyl-4-(2,2,2-trifluoroethoxy)pyridine-2-carboxamide] the same measures were more than 10 µM and 0.0151 µM.
For `CN(C)C(=O)C(NC(=O)c1cc(OCC(F)(F)F)c(C2CC2)cn1)C(C)(C)C` (stereo not shown) [Example 195, 5-cyclopropyl-N-[1-(dimethylamino)-3,3-dimethyl-1-oxobutan-2-yl]-4-(2,2,2-trifluoroethoxy)pyridine-2-carboxamide] the same measures were more than 10 µM and 0.0034 µM.
The corresponding values for `CC(C)(C)C(NC(=O)c1cc(OCC(F)(F)F)c(C2CC2)cn1)C(=O)N1CCC1` (stereo not shown) [Example 196, N-[1-(azetidin-1-yl)-3,3-dimethyl-1-oxobutan-2-yl]-5-cyclopropyl-4-(2,2,2-trifluoroethoxy)pyridine-2-carboxamide] are more than 10 µM and 0.0012 µM.
In the case of `CC(C)(C)C(NC(=O)c1cc(OCC(F)(F)F)c(C2CC2)cn1)C(=O)N1CC(F)(F)C1` (stereo not shown) [Example 197, 5-cyclopropyl-N-[1-(3,3-difluoroazetidin-1-yl)-3,3-dimethyl-1-oxobutan-2-yl]-4-(2,2,2-trifluoroethoxy)pyridine-2-carboxamide], the values for the EC50 in assay [1] (read-out: Human CB1 EC50) and in assay [2] (read-out: Human CB2 EC50) were more than 10 µM and 0.0076 µM, respectively.
For `CC(C)(C)C(NC(=O)c1cc(OCC(F)(F)F)c(C2CC2)cn1)C(=O)N1CCC12COC2` (stereo not shown) [Example 198, 5-cyclopropyl-N-[3,3-dimethyl-1-(6-oxa-1-azaspiro[3.3]heptan-1-yl)-1-oxobutan-2-yl]-4-(2,2,2-trifluoroethoxy)pyridine-2-carboxamide] the same measures were more than 10 µM and 0.0364 µM.
For `C[C@H](Oc1cc(C(=O)NC(C(N)=O)C(C)(C)C)ncc1C1CC1)C(F)(F)F` (stereo partly drawn) [Example 199, N-(1-amino-3,3-dimethyl-1-oxobutan-2-yl)-5-cyclopropyl-4-[(2S)-1,1,1-trifluoropropan-2-yl]oxypyridine-2-carboxamide] the same measures were more than 10 µM and 0.0078 µM.
The corresponding values for `CNC(=O)C(NC(=O)c1cc(O[C@@H](C)C(F)(F)F)c(C2CC2)cn1)C(C)(C)C` (stereo partly drawn) [Example 200, 5-cyclopropyl-N-[3,3-dimethyl-1-(methylamino)-1-oxobutan-2-yl]-4-[(2S)-1,1,1-trifluoropropan-2-yl]oxypyridine-2-carboxamide] are more than 10 µM and 0.0026 µM.
On to `C[C@H](Oc1cc(C(=O)NC(C(=O)N(C)C)C(C)(C)C)ncc1C1CC1)C(F)(F)F` (stereo partly drawn) [Example 201, 5-cyclopropyl-N-[1-(dimethylamino)-3,3-dimethyl-1-oxobutan-2-yl]-4-[(2S)-1,1,1-trifluoropropan-2-yl]oxypyridine-2-carboxamide], for which the results for the EC50 in assay [1] (read-out: Human CB1 EC50) and in assay [2] (read-out: Human CB2 EC50) were more than 10 µM and 0.0024 µM, respectively.
The corresponding values for `C[C@H](Oc1cc(C(=O)NC(C(=O)N2CCC2)C(C)(C)C)ncc1C1CC1)C(F)(F)F` (stereo partly drawn) [Example 202, N-[1-(azetidin-1-yl)-3,3-dimethyl-1-oxobutan-2-yl]-5-cyclopropyl-4-[(2S)-1,1,1-trifluoropropan-2-yl]oxypyridine-2-carboxamide] are more than 10 µM and 0.0022 µM.
The corresponding values for `C[C@H](Oc1cc(C(=O)NC(C(=O)N2CC(F)(F)C2)C(C)(C)C)ncc1C1CC1)C(F)(F)F` (stereo partly drawn) [Example 203, 5-cyclopropyl-N-[1-(3,3-difluoroazetidin-1-yl)-3,3-dimethyl-1-oxobutan-2-yl]-4-[(2S)-1,1,1-trifluoropropan-2-yl]oxypyridine-2-carboxamide] are more than 10 µM and 0.0051 µM.
The corresponding values for `C[C@H](Oc1cc(C(=O)NC(C(=O)N2CCC23COC3)C(C)(C)C)ncc1C1CC1)C(F)(F)F` (stereo partly drawn) [Example 204, 5-cyclopropyl-N-[3,3-dimethyl-1-(6-oxa-1-azaspiro[3.3]heptan-1-yl)-1-oxobutan-2-yl]-4-[(2S)-1,1,1-trifluoropropan-2-yl]oxypyridine-2-carboxamide] are more than 10 µM and 0.0646 µM.
For `C[C@H](Oc1cc(C(=O)NC(c2noc(N)n2)C(C)(C)C)ncc1C1CC1)C(F)(F)F` (stereo partly drawn) [Example 213, N-[1-(5-amino-1,2,4-oxadiazol-3-yl)-2,2-dimethylpropyl]-5-cyclopropyl-4-[(2S)-1,1,1-trifluoropropan-2-yl]oxypyridine-2-carboxamide], the EC50 in assay [1] (read-out: Human CB1 EC50) is more than 10 µM; in assay [2] (read-out: Human CB2 EC50) it was 0.0111 µM.
For `Cc1nc(C(NC(=O)c2cc(O[C@@H](C)C(F)(F)F)c(C3CC3)cn2)C(C)(C)C)no1` (stereo partly drawn) [Example 214, 5-cyclopropyl-N-[2,2-dimethyl-1-(5-methyl-1,2,4-oxadiazol-3-yl)propyl]-4-[(2S)-1,1,1-trifluoropropan-2-yl]oxypyridine-2-carboxamide] the same measures were more than 10 µM and 0.008 µM.
Consider `CC1(COc2cc(C(=O)NC(C)(C)c3nnc(-c4ccccc4)o3)ncc2C2CC2)COC1` [Example 215, 5-cyclopropyl-4-[(3-methyloxetan-3-yl)methoxy]-N-[2-(5-phenyl-1,3,4-oxadiazol-2-yl)propan-2-yl]pyridine-2-carboxamide], for which the EC50 is more than 10 µM in assay [1] (Human CB1 EC50 (uM)) and 0.0309 µM in assay [2] (Human CB2 EC50 (uM)).
Regarding `C[C@H](Oc1cc(C(=O)NC(c2nnn(C)n2)C(C)(C)C)ncc1C1CC1)C(F)(F)F` (stereo partly drawn) [Example 216, 5-cyclopropyl-N-[2,2-dimethyl-1-(2-methyltetrazol-5-yl)propyl]-4-[(2S)-1,1,1-trifluoropropan-2-yl]oxypyridine-2-carboxamide], the EC50 in assay [1] (read-out: Human CB1 EC50) was more than 10 µM; in assay [2] (read-out: Human CB2 EC50), 0.0047 µM.
For `C[C@H](Oc1cc(C(=O)NC(c2noc(N)n2)C(C)(C)C)ncc1C1CC1)C(F)(F)F` (stereo partly drawn) [Example 218, N-[1-(5-amino-1,2,4-oxadiazol-3-yl)-2,2-dimethylpropyl]-5-cyclopropyl-4-[(2S)-1,1,1-trifluoropropan-2-yl]oxypyridine-2-carboxamide] the same measures were more than 10 µM and 0.0068 µM.
As for `C[C@H](Oc1cc(C(=O)NC(c2noc(N)n2)C(C)(C)C)ncc1C1CC1)C(F)(F)F` (stereo partly drawn) [Example 219, N-[1-(5-amino-1,2,4-oxadiazol-3-yl)-2,2-dimethylpropyl]-5-cyclopropyl-4-[(2S)-1,1,1-trifluoropropan-2-yl]oxypyridine-2-carboxamide], the figures for the EC50 in assay [1] (read-out: Human CB1 EC50) and in assay [2] (read-out: Human CB2 EC50) were more than 10 µM and 0.001 µM, respectively.
For `Cc1nc(C(NC(=O)c2cc(O[C@@H](C)C(F)(F)F)c(C3CC3)cn2)C(C)(C)C)no1` (stereo partly drawn) [Example 220, 5-cyclopropyl-N-[2,2-dimethyl-1-(5-methyl-1,2,4-oxadiazol-3-yl)propyl]-4-[(2S)-1,1,1-trifluoropropan-2-yl]oxypyridine-2-carboxamide] the same measures were more than 10 µM and 0.0027 µM.
For `Cc1nc(C(NC(=O)c2cc(O[C@@H](C)C(F)(F)F)c(C3CC3)cn2)C(C)(C)C)no1` (stereo partly drawn) [Example 221, 5-cyclopropyl-N-[2,2-dimethyl-1-(5-methyl-1,2,4-oxadiazol-3-yl)propyl]-4-[(2S)-1,1,1-trifluoropropan-2-yl]oxypyridine-2-carboxamide] the same measures were more than 10 µM and 0.0084 µM.
The corresponding values for `NC(=O)CC1(NC(=O)c2cc(OCC3CC3)c(N3CC(F)(F)C3)cn2)COC1` [Example 222, N-[3-(2-amino-2-oxoethyl)oxetan-3-yl]-4-(cyclopropylmethoxy)-5-(3,3-difluoroazetidin-1-yl)pyridine-2-carboxamide] are more than 10 µM and 0.0467 µM.

The values above are taken from US9409866B2, “Pyridine-2-amides useful as CB2 agonists” (Hoffmann-La Roche Inc., priority 2012, dated 2016).
